Active and inactive are the calls of the source. The calls are words filed in the database; no cut-off is given here.

Series [1] has as its system 4T1. As to the kind of experiment: Antitumor activity against mouse 4T1 cells allografted in BALB/c mouse assessed as reduction in tumor volume at 10 mg/kg, ip qd for 15 days. Particulars: time 15.0 day. The class given is functional, organism-based.
The subject of series [2] is 4T1. Kind of series: Antitumor activity against mouse 4T1 cells allografted in BALB/c mouse assessed as reduction in tumor weight at 10 mg/kg, ip qd for 15 days. Conditions: time 15.0 day. The class given is functional, organism-based.
For series [3], the target named is T1, Protein cereblon/Programmed cell death 1 ligand 1 (Mus musculus) (UniProt Q9EP73+Q8C7D2). As to the kind of experiment: PROTAC activity at CRBN/PD-L1 in mouse 4T1 cells assessed as protein degradation at 1.25 to 20 uM incubated for 24 hrs by Western blot analysis. Type of series: cell-based. Conditions: dose 1.25-20 µM. (A western blot detects proteins with antibodies after separation by electrophoresis.)
T1 sequence (Q8C7D2 whole entry partner): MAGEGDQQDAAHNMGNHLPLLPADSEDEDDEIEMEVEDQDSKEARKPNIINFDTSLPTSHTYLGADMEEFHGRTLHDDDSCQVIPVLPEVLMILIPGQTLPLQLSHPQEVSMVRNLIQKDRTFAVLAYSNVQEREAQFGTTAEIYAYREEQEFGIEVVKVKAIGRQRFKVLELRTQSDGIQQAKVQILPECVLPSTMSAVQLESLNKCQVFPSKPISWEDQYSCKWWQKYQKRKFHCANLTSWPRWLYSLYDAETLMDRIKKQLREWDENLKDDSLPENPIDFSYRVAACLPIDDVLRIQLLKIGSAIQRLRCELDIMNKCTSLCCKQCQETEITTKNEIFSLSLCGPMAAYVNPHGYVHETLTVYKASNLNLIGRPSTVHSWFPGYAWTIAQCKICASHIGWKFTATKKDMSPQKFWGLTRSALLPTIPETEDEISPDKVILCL
T1 sequence (Q9EP73 19-290 limits assumed): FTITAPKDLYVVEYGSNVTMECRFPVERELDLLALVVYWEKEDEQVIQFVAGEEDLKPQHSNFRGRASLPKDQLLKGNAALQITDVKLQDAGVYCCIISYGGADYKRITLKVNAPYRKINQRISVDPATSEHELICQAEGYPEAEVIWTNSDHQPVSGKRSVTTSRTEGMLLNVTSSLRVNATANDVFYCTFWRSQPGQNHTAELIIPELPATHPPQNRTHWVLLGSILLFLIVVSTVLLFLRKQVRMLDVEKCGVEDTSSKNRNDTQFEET

The target of series [4] is T1, Protein cereblon/Programmed cell death 1 ligand 1 (Mus musculus). Kind of series: PROTAC activity at CRBN/PD-L1 in mouse 4T1 cells at 0.156 to 5 uM incubated for 24 hrs by Western blot analysis. The class given is cell-based. Conditions: dose 0.156-5 µM.
For series [5], the system named is 4T1. Kind of series: Antitumor activity against mouse 4T1 cells assessed as decrease in cell viability incubated for 24 hrs by LDH assay. Type of series: functional, cell-based.
Series [6] can be described thus: Cytotoxicity against BALB/c mouse PBMC cells at <=0.312 uM incubated for 48 hrs by MTT assay. The class given is toxicity, cell-based. (Formazan colour is commonly taken as a measure of viable cells.)

With `CC(=O)O[C@H]1C(=O)[C@@]2(C)[C@H]([C@H](OC(=O)c3ccccc3)[C@]3(O)C[C@H](OC(=O)[C@H](O)[C@@H](NC(=O)c4ccccc4)c4ccccc4)C(C)=C1C3(C)C)[C@]1(OC(C)=O)CO[C@@H]1C[C@@H]2O`, the outcome in series [1] and in series [2] was Active.
In the case of `COc1nc(OCc2cccc(-c3ccccc3)c2C)ccc1CNCCNC(=O)CCCCCCCNC(=O)COc1ccc(C2CCC(=O)NC2=O)cc1` (configuration not stated), in series [3], the outcome was Active.
Still for that read-out and setting: the result for `COc1nc(OCc2cccc(-c3ccccc3)c2C)ccc1CNCCNC(=O)CCCCCCNC(=O)COc1ccc(C2CCC(=O)NC2=O)cc1` (configuration not stated) reads “Active”.
For the molecule `COc1nc(OCc2cccc(-c3ccccc3)c2C)ccc1CNCCNC(C)=O.Cl`, the outcome in series [4] was inactive. In series [5], the result was Active. The Activity result in series [6] is “Non-Toxic”.

For the origin of these results see ChEMBL document CHEMBL5500406, “Discovery of Novel Proteolysis-Targeting Chimera Molecules as Degraders of Programmed Cell Death-Ligand 1 for Breast Cancer Therapy” (J Med Chem, 2024).
